The record followed here is paper PMC7534330, “UHPLC-MS/MS method for pharmacokinetic and bioavailability determination of five bioactive components in raw and various processed products of Polygala tenuifolia in rat plasma” (Pharmaceutical Biology, 2020).

This data set can be described thus: Pharmacokinetics and absolute bioavailability of five compounds after oral and i.v. administration (UHPLC-MS/MS). The data set is classed as in vivo. The conditions noted are these: rat; for MRT last: read-out: MRT0-t; for half-life: read-out: t1/2 (converted); for AUCΔ0-t (dose-normalized) / AUCΔ0-∞ (dose-normalized) / CΔmax (dose-normalized): dose-normalized value. As to the method:
A Thermo Hypersil Gold C18 column (3.0 × 100 mm, i.d.; 3 μm) was used for chromatographic separation. An aqueous 10 mM ammonium acetate solution (A) and acetonitrile (B) were selected as the mobile phase components. The optimal gradient program involved the following steps: 5% B (0–1 min), changing to 85% B (1–3.5 min), 85% B (3.5–4.0 min), changing to 5% B (4.0–4.1 min) and 5% B (4.1–5.0 min). The flow rate was set to 0.4 mL/min, the autosampler was maintained at 4 °C and the injection volume was 5 μL.
UHPLC-MS/MS was conducted by an Applied Biosystems (AB) Sciex Exion LC system (Foster City, CA) connected to a 6500 + triple quad tandem mass spectrometer with an electrospray ionization source. All detection and quantifications were carried out in positive multiple reaction monitoring (MRM) mode. The optimized parameters were programmed as follows: ion source temperature, 500 °C; curtain gas pressure, 30 kPa; ion source gas 1 pressure, 55 kPa; ion source gas 2 pressure, 55 kPa; and ion spray voltage, […]. The chemical structures and ion mass spectra of targeted compounds are shown in Figure 1. The precursor ion and product ion were m/z 517.1 → 174.9 for A5, m/z 547.0 → 204.9 for A6, m/z 753.2 → 205.2 for DSS, m/z 681.3 → 443.3 for TFSA, m/z 236.8 → 103.2 for TMCA and m/z 136.9 → 92.9 for IS. All data were acquired by using AB Sciex Analyst software (version 1.6.3).
After thawing the frozen blood samples at room temperature, a 100 μL aliquot of plasma was spiked with 50 μL of the IS working solution in 2 mL EP tubes, and 750 μL of methanol was added into each of the tubes. Then, these tubes were mixed on a multi-tube Vortexer for 0.5 min before centrifugation at 11,800×g for 10 min. Finally, 200 μL of the obtained supernatant was transferred to a fresh autosampler vial, and then 5 μL of the sample was injected for analysis.
The SD rats were randomly divided into oral and i.v. groups for A5, A6, DSS, TFSA and TMCA administration (n = 6 in each group). The oral doses of A5, A6, DSS, TFSA and TMCA groups were 7.40, 11.60, 16.00, 50.00 and 3.11 mg/kg, respectively, and the corresponding i.v. doses were 0.74, 1.16, 1.60, 5.00 and 0.31 mg/kg, respectively. Blood samples were collected from the suborbital vein into heparinized tubes before and 0, 0.083, 0.17, 0.25, 0.5, 1, 2, 3, 5 and 8 h after administration. The treatment method of blood samples was the same as that mentioned above.
The elementary pharmacokinetic parameters of plasma samples were analyzed by DAS 2.0 pharmacokinetic software. One-way analysis of variance (ANOVA) was used for statistical comparison for pharmacokinetic and interaction studies. A p-value < 0.05 indicated a significant difference. The main parameters considered were as follows: AUC0–∞ (the area under the blood concentration-time curve from zero to infinity initial plasma concentration), MRT (the mean residence time), Cmax (peak plasma concentration) and Tmax (time to reach Cmax for oral dose), t1/2 (elimination half-life) (He et al. [2015]). The absolute bioavailability (F) was evaluated as follows: F(%)=(AUCoral×Dosei.v.)/(AUCi.v.×Doseoral)×100%

Setting [1] is: SD, in vivo, iv, i.v. administration, A5 0.74, A6 1.16, DSS 1.60, TFSA 5.00, TMCA 0.31 mg/kg, n = 6.
The mark [2] stands for this setting: SD, in vivo, oral administration of pure compound, A5 7.40, A6 11.60, DSS 16.00, TFSA 50.00, TMCA 3.11 mg/kg, n = 6.

Structures are written as SMILES. Read-outs that look alike come from different tables or passages of the source.

Consider `COc1cc(C=CC(=O)O)cc(OC)c1OC` [TMCA, 3,4,5-trimethoxycinnamic acid], for which, under setting [1], the area under the curve AUC(0-inf) turned out to be 226 ± 61.2 ng·h/mL, the AUC(0-t) was found to be 225 ± 60.9 ng·h/mL, the maximum concentration (Cmax) was found to be 1470 ± 238 ng/mL and the MRT last amounted to 15 ± 3.6 min. Under setting [1], the half-life is 37.2 ± 7.8 min. Further, under setting [2], the AUC(0-inf) came to 971 ± 59.8 ng·h/mL, the AUC(0-t) is 968 ± 58.4 ng·h/mL, the peak concentration (Cmax) came out at 1110 ± 90.5 ng/mL and the MRT last came out at 40.8 ± 1.8 min. The half-life under setting [2] is 39 ± 1.2 min. Also, where the note is “SD, in vivo, oral administration of pure compound, A5 7.40, A6 11.60, DSS 16.00, TFSA 50.00, TMCA 3.11 mg/kg, n = 6, read-out: Tmax”, the Tmax turned out to be 15 min. In addition, where the note is “i.v. administration”, the “AUCΔ0-t (dose-normalized)” value came out at 725.52 ± 196.42 ng·h/mL, the “AUCΔ0-∞ (dose-normalized)” value amounted to 730.65 ± 197.45 ng·h/mL and the “CΔmax (dose-normalized)” value is recorded as 4750.32 ± 768.32 ng/mL. For the setting “oral administration”, the “AUCΔ0-t (dose-normalized)” value came out at 311.40 ± 18.78 ng·h/mL, the “AUCΔ0-∞ (dose-normalized)” value amounted to 312.32 ± 19.23 ng·h/mL and the “CΔmax (dose-normalized)” value is listed as 356.33 ± 29.10 ng/mL. In addition, the “F, absolute bioavailability” value (oral vs i.v. (i.v. dose 1/10 of oral dose)) is recorded as 42.91 % of dose.
